In article PMC9596378, “Discovery and molecular basis of subtype-selective cyclophilin inhibitors” (Nature Chemical Biology, 2022):
Where “and” joins values, the source holds several entries; their conditions need not be identical. Equal values may be shown once. Read-outs that look alike come from different tables or passages of the source.

Columns and labels:
Assay in all cases: Chymotrypsin coupled prolyl-isomerase assay
Type in all cases: biochemical
[1] = target: T1, CypG (Homo sapiens, UniProt Q13427)
T1 construct: PPIG (UniProtKB Entry Q13427: residues 1–179); His6 with thrombin site (pET28a LIC leader) (N); host or cells: E. coli BL21(DE3)
T1 sequence (Q13427 1-179): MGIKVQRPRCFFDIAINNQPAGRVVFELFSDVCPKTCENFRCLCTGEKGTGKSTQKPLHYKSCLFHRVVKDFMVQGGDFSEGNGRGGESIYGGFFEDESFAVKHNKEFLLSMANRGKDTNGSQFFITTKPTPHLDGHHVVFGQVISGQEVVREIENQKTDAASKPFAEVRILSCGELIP
Protocol: (§1) Adapting a previously described protocol, with an Agilent Bravo Velocity 11 with a 384ST head, 90 µL assay buffer (25 mM HEPES pH 7.3, 100 mM NaCl, 0.01% Triton X-100) containing 5.28 nM cyclophilin was added into a flat, clear-bottom, black 384-well plate pre-chilled in a Corning CoolBox at 2–3 °C. Five microliters of compound pre-dissolved in 5% DMSO/assay buffer was then added to appropriate wells and incubated at 2–3 °C for 5 min. Five microliters of 0.5 mM α-chymotrypsin from bovine pancreas (Type II, lyophilized powder, Millipore-Sigma) in 20% 1 mM HCl/Assay Buffer was then added to each well and incubated at 2–3 °C for 5 min. The plate was then quickly transferred to a FLIPR Tetra High-Throughput Cellular Screening System (Molecular Devices). Using the internal liquid handling system of the FLIPR, 1 µL 0.5 mM Suc-AAPF-AMC (Chymotrypsin Substrate II, Millipore-Sigma) dissolved in 0.55 M LiCl/2,2,2-trifluoroethanol was added to each well, which was then mixed for 5 s, followed by immediate fluorescence measurements every 1 s for 330 s using a 360–380 nm excitation LED module and a 400–460 nm emission filter. Final concentrations of the plate include 5 nM cyclophilin, 0.25% DMSO, 25 µM α-chymotrypsin, 5 µM Suc-AAPF-AMC. Raw fluorescence data was analyzed by non-linear regression analysis with Prism v.9 by fitting one-phase association curves to each well. […] Rate constants calculated for each well (s^−1) were then normalized to substrate only (no prolyl-isomerase) and enzyme + substrate only controls. IC50 values were calculated as the value at which 50% inhibition was achieved on the non-linear regression fitted curve of each compound.

[2] = target: T2, CypA (Homo sapiens, UniProt P62937)
T2 construct: PPIA (UniProtKB Entry P62937: residues 1–165); made in house; host or cells: E. coli BL21(DE3)
Protocol: as §1

[3] = target: T3, CypC (Homo sapiens, UniProt P45877)
T3 construct: PPIC (UniProtKB Entry P45877: residues 24–212); host or cells: E. coli BL21(DE3)
Protocol: as §1

[4] = target: T4, CypE (Homo sapiens, UniProt Q9UNP9)
T4 construct: PPIE (UniProtKB Entry Q9UNP9: residues 131–301); host or cells: E. coli BL21(DE3)
Protocol: as §1

[5] = target: T5, CypH (Homo sapiens, UniProt O43447)
T5 construct: PPIH (UniProtKB Entry O43447: residues 1–177); His6 with TEV site (2BT vector leader) (N); made in house; host or cells: E. coli BL21(DE3)
Protocol: as §1

T3 sequence (P45877 24-212): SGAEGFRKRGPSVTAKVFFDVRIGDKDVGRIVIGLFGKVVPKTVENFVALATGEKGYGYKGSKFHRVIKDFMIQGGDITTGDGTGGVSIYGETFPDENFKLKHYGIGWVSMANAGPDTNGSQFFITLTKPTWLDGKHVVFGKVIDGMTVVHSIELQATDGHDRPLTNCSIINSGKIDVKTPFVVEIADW
T2 sequence (P62937 whole entry, the tested form may be a part): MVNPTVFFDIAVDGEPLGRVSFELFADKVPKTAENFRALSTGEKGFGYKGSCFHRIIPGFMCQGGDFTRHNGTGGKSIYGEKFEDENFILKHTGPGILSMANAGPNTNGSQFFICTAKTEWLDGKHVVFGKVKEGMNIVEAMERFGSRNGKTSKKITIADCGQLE
T4 sequence (Q9UNP9 131-301): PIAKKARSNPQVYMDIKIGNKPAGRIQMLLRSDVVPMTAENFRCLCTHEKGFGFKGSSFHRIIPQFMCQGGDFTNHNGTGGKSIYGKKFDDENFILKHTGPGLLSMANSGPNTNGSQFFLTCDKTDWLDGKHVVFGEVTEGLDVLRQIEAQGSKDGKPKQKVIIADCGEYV
T5 sequence (O43447 whole entry, the tested form may be a part): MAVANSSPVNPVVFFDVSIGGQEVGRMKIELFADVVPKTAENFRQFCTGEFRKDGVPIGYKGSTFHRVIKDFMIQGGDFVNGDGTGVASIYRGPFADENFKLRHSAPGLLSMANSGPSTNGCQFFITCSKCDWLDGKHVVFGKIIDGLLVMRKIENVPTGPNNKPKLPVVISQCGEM

For `NC(=O)C1CCNC(=O)C=CC(=O)N2CCCC(Cc3ccccc3)(C2)C(=O)NC(Cc2ccc(-c3ccc(C=O)c(B(O)O)c3)cc2)C(=O)NCc2ccccc2CC(=O)N1` (stereo not shown) [Compound C3A], the “CypG prolyl-isomerase raw dose-response reading (Fig. 6c)” value ([1]; Dose 0.00457247 µM) was 0.04675 and 0.05256 and 0.06278, the “CypG prolyl-isomerase raw dose-response reading (Fig. 6c)” value ([1]; Dose 0.0137174 µM) was 0.05042 and 0.05542 and 0.04906 and the “CypG prolyl-isomerase raw dose-response reading (Fig. 6c)” value ([1]; Dose 0.0411523 µM) was 0.05063 and 0.04839 and 0.04139. For the same molecule, the “CypG prolyl-isomerase raw dose-response reading (Fig. 6c)” value ([1]; Dose 0.123457 µM) was 0.04982 and 0.05395 and 0.05565, the “CypG prolyl-isomerase raw dose-response reading (Fig. 6c)” value ([1]; Dose 0.37037 µM) was 0.04159 and 0.05179 and 0.03978 and the “CypG prolyl-isomerase raw dose-response reading (Fig. 6c)” value ([1]; Dose 1.11111 µM) was 0.05731 and 0.0555 and 0.05308. The “CypG prolyl-isomerase raw dose-response reading (Fig. 6c)” value ([1]; Dose 3.33333 µM) was 0.04975 and 0.046 and 0.05109, the “CypG prolyl-isomerase raw dose-response reading (Fig. 6c)” value ([1]; Dose 10 µM) was 0.05239 and 0.04081 and 0.048 and the IC50 ([1]; Independent replicate 1, read-out: IC50 CypG) was over 10 µM. The IC50 ([1]; Independent replicate 2, read-out: IC50 CypG) was about 40 µM, the IC50 ([1]; Independent replicate 3, read-out: IC50 CypG) was about 26 µM and the IC50 ([1]; Independent replicate 4, read-out: IC50 CypG) was about 50 µM. The IC50 ([1]; wild-type CypG, read-out: Wild-Type Cyclophilin Prolyl Isomerase Inhibition IC50 Values, CypG) was 40 µM, the “CypA prolyl-isomerase raw dose-response reading (Fig. 6c)” value ([2]; Dose 0.00114312 µM) was 0.07306 and 0.07874 and 0.07172 and the “CypA prolyl-isomerase raw dose-response reading (Fig. 6c)” value ([2]; Dose 0.00342936 µM) was 0.06275 and 0.05859. For the same molecule, the “CypA prolyl-isomerase raw dose-response reading (Fig. 6c)” value ([2]; Dose 0.0102881 µM) was 0.07757 and 0.05083 and 0.08593, the “CypA prolyl-isomerase raw dose-response reading (Fig. 6c)” value ([2]; Dose 0.0308642 µM) was 0.09366 and 0.07648 and 0.07092 and the “CypA prolyl-isomerase raw dose-response reading (Fig. 6c)” value ([2]; Dose 0.0925926 µM) was 0.1069 and 0.06289 and 0.07689. The “CypA prolyl-isomerase raw dose-response reading (Fig. 6c)” value ([2]; Dose 0.205761 µM) was 0.06396 and 0.05394 and 0.06349 and 0.0486 and 0.04768 and 0.0647 and 0.04401 and 0.05288, the “CypA prolyl-isomerase raw dose-response reading (Fig. 6c)” value ([2]; Dose 0.277778 µM) was 0.09488 and 0.06 and 0.09425 and the “CypA prolyl-isomerase raw dose-response reading (Fig. 6c)” value ([2]; Dose 0.833333 µM) was 0.06403 and 0.06231 and 0.07443. The “CypA prolyl-isomerase raw dose-response reading (Fig. 6c)” value ([2]; Dose 2.5 µM) was 0.06101 and 0.05306 and 0.05126, the IC50 ([2]; Independent replicate 1, read-out: IC50 CypA) was about 3 µM and the IC50 ([2]; Independent replicate 2, read-out: IC50 CypA) was 2.2 ± 0.7 µM. For the same molecule, the IC50 ([2]; Independent replicate 3, read-out: IC50 CypA) was 1.6 ± 0.7 µM, the IC50 ([2]; Independent replicate 4, read-out: IC50 CypA) was 4 ± 2 µM and the IC50 ([2]; wild-type CypA, read-out: Wild-Type Cyclophilin Prolyl Isomerase Inhibition IC50 Values, CypA) was 3 µM. The “CypC prolyl-isomerase raw dose-response reading (Fig. 6c)” value ([3]; Dose 0.00457247 µM) was 0.03895 and 0.0375, the “CypC prolyl-isomerase raw dose-response reading (Fig. 6c)” value ([3]; Dose 0.0137174 µM) was 0.04174 and 0.04247 and 0.04306 and the “CypC prolyl-isomerase raw dose-response reading (Fig. 6c)” value ([3]; Dose 0.0411523 µM) was 0.05121 and 0.04011 and 0.04386. For the same molecule, the “CypC prolyl-isomerase raw dose-response reading (Fig. 6c)” value ([3]; Dose 0.123457 µM) was 0.05033 and 0.03342 and 0.04085, the “CypC prolyl-isomerase raw dose-response reading (Fig. 6c)” value ([3]; Dose 0.37037 µM) was 0.03932 and 0.03966 and 0.05738 and the “CypC prolyl-isomerase raw dose-response reading (Fig. 6c)” value ([3]; Dose 1.11111 µM) was 0.0536 and 0.03667 and 0.04316. The “CypC prolyl-isomerase raw dose-response reading (Fig. 6c)” value ([3]; Dose 3.33333 µM) was 0.03577 and 0.0377 and 0.04529, the “CypC prolyl-isomerase raw dose-response reading (Fig. 6c)” value ([3]; Dose 10 µM) was 0.03905 and 0.04054 and 0.0318 and the IC50 ([3]; Independent replicate 1, read-out: IC50 CypC) was over 10 µM. For the same molecule, the IC50 ([3]; Independent replicate 2, read-out: IC50 CypC) was 15 ± 4 µM, the IC50 ([3]; Independent replicate 3, read-out: IC50 CypC) was 20 ± 10 µM and the IC50 ([3]; Independent replicate 4, read-out: IC50 CypC) was 19 ± 9 µM. The IC50 ([3]; wild-type CypC, read-out: Wild-Type Cyclophilin Prolyl Isomerase Inhibition IC50 Values, CypC) was 17 µM, the “higher CypE inhibition potency of C3A over C5A” value [4] was 75 fold and the “selectivity for CypE over CypA” value [4] was over 100 fold. For the same molecule, the IC50 ([4]; Independent replicate 1, read-out: IC50 CypE) was 0.013 ± 0.003 µM, the IC50 ([4]; Independent replicate 2, read-out: IC50 CypE) was 0.018 ± 0.006 µM and the IC50 ([4]; Independent replicate 3, read-out: IC50 CypE) was 0.009 ± 0.002 µM. For the same molecule, the IC50 ([4]; Independent replicate 4, read-out: IC50 CypE) was 0.012 ± 0.004 µM, the “selectivity for CypE over the other cyclophilins screened” value ([4]; prolyl-isomerase IC50) was 30- to 4,000 fold and the IC50 ([4]; prolyl-isomerase inhibition, 5 nM cyclophilin, read-out: IC50 CypE) was 0.013 ± 0.004 µM. The IC50 ([4]; prolyl-isomerase inhibition, read-out: IC50 CypE) was 0.013 µM, the IC50 ([4]; wild-type CypE, read-out: Wild-Type Cyclophilin Prolyl Isomerase Inhibition IC50 Values, CypE) was 0.013 µM and the “CypH prolyl-isomerase raw dose-response reading (Fig. 6c)” value ([5]; Dose 0.00457247 µM) was 0.05086 and 0.04496. The “CypH prolyl-isomerase raw dose-response reading (Fig. 6c)” value ([5]; Dose 0.0137174 µM) was 0.05594 and 0.04525 and 0.04484, the “CypH prolyl-isomerase raw dose-response reading (Fig. 6c)” value ([5]; Dose 0.0411523 µM) was 0.05731 and 0.04453 and 0.05359 and the “CypH prolyl-isomerase raw dose-response reading (Fig. 6c)” value ([5]; Dose 0.123457 µM) was 0.05145 and 0.04681 and 0.07329. The “CypH prolyl-isomerase raw dose-response reading (Fig. 6c)” value ([5]; Dose 0.37037 µM) was 0.05882 and 0.04794 and 0.07376, the “CypH prolyl-isomerase raw dose-response reading (Fig. 6c)” value ([5]; Dose 1.11111 µM) was 0.06718 and 0.05255 and 0.05895 and the “CypH prolyl-isomerase raw dose-response reading (Fig. 6c)” value ([5]; Dose 3.33333 µM) was 0.06287 and 0.05436 and 0.04825. The “CypH prolyl-isomerase raw dose-response reading (Fig. 6c)” value ([5]; Dose 10 µM) was 0.04443 and 0.06084 and 0.04295, the IC50 ([5]; Independent replicate 1, read-out: IC50 CypH) was over 10 µM and the IC50 ([5]; Independent replicate 2, read-out: IC50 CypH) was over 50 µM. The IC50 ([5]; Independent replicate 3, read-out: IC50 CypH) was about 40 µM, the IC50 ([5]; Independent replicate 4, read-out: IC50 CypH) was over 50 µM and the IC50 ([5]; prolyl-isomerase inhibition, 5 nM cyclophilin, read-out: IC50 CypH) was over 50 µM. For the same molecule, the IC50 ([5]; wild-type CypH, read-out: Wild-Type Cyclophilin Prolyl Isomerase Inhibition IC50 Values, CypH) was over 50 µM.
